These results are taken from US9023385B2, “Pharmaceutical use of 2-(4-morpholinoaniline)-6-cyclohexyl aminopurine and/or salt thereof for improving liver functioning” (Zhangzhou Pien Tze Huang Pharmaceutical Co., Ltd., priority 2011, dated 2015).

Entries after “also recorded” stand apart in the source; their conditions may differ.

Assay [1] concerns CCl4-induced liver fibrosis. Conditions: Sprague-Dawley rats, CCl4 i.p. 6 weeks, then 50 or 100 μg/kg i.p. twice a week for two or four weeks.
Protocol: Twenty-four adult male Sprague-Dawley rats (500-600 g) were divided into 4 groups (n=6), the first group (control) was injected with carbon tetrachloride (CCl4) intraperitonally (i.p.) twice per week for 6 weeks to induce liver fibrosis. […] At the end of the experimentation, the different groups of rats were sacrificed and samples of the liver were collected and fixed in 4% buffered formalin for 24 hours. Paraffin embedded samples were sectioned for histology and immunohistochemistry. Liver samples were also collected and stored in −20° C. for Western Blot Analysis and RT-PCR quantification.
Assay [2] deals with activated rat hepatic stellate cells. The note with it: 5-10 μM. How it is done:
The isolation of the rat hepatic stellate cells: The liver of an adult male Sprague-Dawley rats (500-600 g) were excised out after perfusion with pronase and collagenase. The liver tissue was homogenized and centrifuged. […] The cells were cultured in DMEM (Dulbecco Meliorated Eagle Medium) with 20% FBS inside culture plates at a cell density of 1.5×10^5 cells/cm^2. After two days incubation, the culture medium was changed and the cell debris was washed and removed.
The culture condition of rat hepatic stellate cells: The rat hepatic stellate cells were cultured in DMEM containing 20% fetal bovine serum (FBS), penicillin (100 U/ml) and streptomycin (100 ug/ml) at 37° C. in 5% CO2. The culture medium was changed for every fourth day.
The inhibitory effect of 2-(4-morpholinoaniline)-6-cyclohexyl aminopurine on activated rat hepatic stellate cells: The cells were treated with 5-10 μM of 2-(4-morpholinoaniline)-6-cyclohexyl aminopurine for 24 hours. The treated cells were then collected for Microarrays analysis. The treated cells were also processed for immunofluorescence staining and RT-PCR quantification.
The western blot analysis: The cells are disrupted in 200 μl lysis buffer (50 mM NaCl, 20 mM Tris (trihydroxymethyl aminomethane) pH 7.6, 1% Nonidet P-40, 1× protease inhibitor compounds) for 1 hour at 4° C. After incubation, the lysate was centrifuged at 16,000×g for 10 mins. The supernatant was transferred to a new tube and a protein quantification kit was used to quantify the concentration of proteins in each samples. 25 μg of total protein from each sample was loaded into the 10% SDS PAGE gel for analysis. Collagen-I, MMP-2, MMP-3, TIMP-2 and TIMP-3 mouse monoclonal antibodies (Santa Cruz Lab) were used to analyze the samples. Beta-actin and beta-tubulin monoclonal antibodies (1:1000 diluted) were used as internal control and normalization.

Turning to `c1nc2c(NC3CCCCC3)nc(Nc3ccc(N4CCOCC4)cc3)nc2[nH]1` [2-(4-morpholinoaniline)-6-cyclohexyl aminopurine], in assay [1], the “Collagen synthesis in liver (histology, FIG. 5)” value is reported as “effective in inhibiting collagen synthesis”. In addition, the “Expression and synthesis of matrix metalloproteinases-2 (MMP-2) by activated hepatic stellate cells” value in assay [2] (treatment for 3 days (FIG. 3B)) was “inhibited them from expressing and synthesizing and MMP-2; also recorded: suppressed activated hepatic stellate cells from expressing and synthesizing MMP-2 and MMP-3”. Besides, the “Expression and synthesis of matrix metalloproteinases-3 (MMP-3) by activated hepatic stellate cells” value in assay [2] (treatment for 3 days (FIG. 3D)) is “inhibited them from expressing and synthesizing MMP-3; also recorded: suppressed activated hepatic stellate cells from expressing and synthesizing MMP-2 and MMP-3”. In addition, in assay [2] (treatment for 3 days (FIG. 4B)), the “Expression and synthesis of tissue inhibitor of metalloproteinase-2 (TIMP-2) by activated hepatic stellate cells” value was “could inhibit activated hepatic stellate cells from expressing and synthesizing TIMP-2; also recorded: could inhibit the cells from producing TIMP-2 and TIMP-3”. Also, the “Expression and synthesis of TIMP-3 by activated hepatic stellate cells” value in assay [2] (treatment for 3 days (FIG. 4D)) is “inhibited them from expressing and synthesizing TIMP-3; also recorded: could inhibit the cells from producing TIMP-2 and TIMP-3”.
